From ChEMBL document CHEMBL5528082 (J Med Chem, 2024)
≈ marks a conversion by molar mass, not a printed value. Calls of active or inactive are those of the source. No cut-off for these calls is given here.

Tests used:
[1] = tested on: Staphylococcus aureus; assay: Antibacterial activity against Staphylococcus aureus ATCC 25923 incubated for 24 hrs by CLSI based broth microdilution assay; type: functional
[2] = tested on: Staphylococcus aureus; assay: Antibacterial activity against Staphylococcus aureus USA 300 incubated for 24 hrs by CLSI based broth microdilution assay; type: functional
[3] = tested on: Staphylococcus aureus; assay: Antibacterial activity against TMP-resistant Staphylococcus aureus BHKS 227 incubated for 24 hrs by CLSI based broth microdilution assay; type: functional
[4] = tested on: Staphylococcus aureus; assay: Antibacterial activity against TMP-resistant Staphylococcus aureus BHKS 723 incubated for 24 hrs by CLSI based broth microdilution assay; type: functional
[5] = Cytotoxicity against HEK293 cells assessed as inhibition rate of cell growth at 100 uM incubated for 24 hrs by CCK8 assay relative to control; type: toxicity, cell-based; settings: human
[6] = Cytotoxicity against human NCM460 cells assessed as inhibition rate of cell growth at 100 uM incubated for 24 hrs by CCK8 assay relative to control; type: toxicity, cell-based
[7] = target: T1, Dihydrofolate reductase (Staphylococcus aureus, UniProt P0A017); assay: Inhibition of Staphylococcus aureus DHFR expressed in Escherichia coli BL21 (DE3) using DHF as substrate preincubated for 10 mins followed by substrate addition measured for 10 mins in presence of NADPH by spectrophotometry
[8] = Acute toxicity in C57 mouse assessed as animal death at 800 mg/kg, po measured after 1 week; type: organism-based; settings: in vivo, 168 h, time 1 weeks
[9] = Acute toxicity in C57 mouse assessed as liver inflammation at 800 mg/kg, po measured after 1 week by biochemical analysis; type: organism-based; settings: in vivo, 168 h, time 1 weeks
[10] = Acute toxicity in C57 mouse assessed as damage in liver at 800 mg/kg, po measured after 1 week by H and E staining based analysis; type: organism-based; settings: in vivo, 168 h, time 1 weeks
[11] = Acute toxicity in C57 mouse assessed as damage in kidney at 800 mg/kg, po measured after 1 week by H and E staining based analysis; type: organism-based; settings: in vivo, 168 h, time 1 weeks
[12] = Acute toxicity in C57 mouse assessed as damage in lung at 800 mg/kg, po measured after 1 week by H and E staining based analysis; type: organism-based; settings: in vivo, 168 h, time 1 weeks
[13] = Metabolic stability in human liver microsomes assessed as half life at 3 uM measured for 120 mins by LC-MS/MS analysis; type: ADME, Microsome; settings: 2 h
[14] = Metabolic stability in human liver microsomes assessed as clearance rate at 3 uM measured for 120 mins by LC-MS/MS analysis; type: ADME, Microsome; settings: 2 h
[15] = Metabolic stability in mouse liver microsomes assessed as half life at 3 uM measured for 120 mins by LC-MS/MS analysis; type: ADME, Microsome; settings: 2 h
[16] = Cmax in Sprague-Dawley rat at 5 mg/kg, iv measured for 24 hrs by LC/MS analysis; type: ADME, organism-based; settings: in vivo
[17] = Tmax in Sprague-Dawley rat at 5 mg/kg, iv measured for 24 hrs by LC/MS analysis; type: ADME, organism-based; settings: in vivo
[18] = Clearance in Sprague-Dawley rat at 5 mg/kg, iv measured for 24 hrs by LC/MS analysis; type: ADME, organism-based; settings: in vivo
[19] = AUC (0 to t) in Sprague-Dawley rat at 5 mg/kg, iv measured for 24 hrs by LC/MS analysis; type: ADME, organism-based; settings: in vivo
[20] = Cmax in Sprague-Dawley rat at 15 mg/kg, po measured for 24 hrs by LC/MS analysis; type: ADME, organism-based; settings: in vivo
[21] = Tmax in Sprague-Dawley rat at 15 mg/kg, po measured for 24 hrs by LC/MS analysis; type: ADME, organism-based; settings: in vivo
[22] = AUC (0 to t) in Sprague-Dawley rat at 15 mg/kg, po measured for 24 hrs by LC/MS analysis; type: ADME, organism-based; settings: in vivo
[23] = tested on: Staphylococcus aureus; assay: Antibacterial activity against methicillin-resistant Staphylococcus aureus ATCC 33591 infected in C57 mouse model assessed as body weight recovery at 2 to 10 mg/kg administered once a day for 3 days consecutively and measured after 24 hrs post-last dose; type: functional, organism-based; settings: dose 2-10 mg/kg, time 4.0 day
[24] = tested on: Staphylococcus aureus; assay: Antibacterial activity against methicillin-resistant Staphylococcus aureus ATCC 33591 infected in C57 mouse model assessed as decrease in skin abscess at 2 to 10 mg/kg administered once a day for 3 days consecutively and measured after 24 hrs post-last dose; type: functional, organism-based; settings: dose 2-10 mg/kg, time 4.0 day
[25] = tested on: Staphylococcus aureus; assay: Antibacterial activity against methicillin-resistant Staphylococcus aureus ATCC 33591 infected in C57 mouse model assessed as reduction in bacterial count at 2 to 10 mg/kg administered once a day for 3 days consecutively and measured after 24 hrs post-last dose by colony counting method; type: functional, organism-based; settings: dose 2-10 mg/kg, time 4.0 day
[26] = tested on: Staphylococcus aureus; assay: Antibacterial activity against methicillin-resistant Staphylococcus aureus ATCC 33591 infected in C57 mouse model assessed as decrease in pathological change at 2 to 10 mg/kg administered once a day for 3 days consecutively and measured after 24 hrs post-last dose by H and E staining based analysis; type: functional, organism-based; settings: dose 2-10 mg/kg, time 4.0 day
[27] = tested on: Staphylococcus aureus; assay: Antibacterial activity against methicillin-resistant Staphylococcus aureus ATCC 33591 infected in C57 mouse model assessed as clear skin structure at 2 to 10 mg/kg administered once a day for 3 days consecutively and measured after 24 hrs post-last dose by H and E staining based analysis; type: functional, organism-based; settings: dose 2-10 mg/kg, time 4.0 day
[28] = tested on: Mus musculus; assay: Induction of inflammatory cell infiltration in C57 mouse model infected with methicillin-resistant Staphylococcus aureus ATCC 33591 at 2 to 10 mg/kg administered once a day for 3 days consecutively and measured after 24 hrs post-last dose by H and E staining based analysis; type: functional, organism-based; settings: dose 2-10 mg/kg, time 4.0 day
[29] = target: T1, Dihydrofolate reductase; assay: Binding affinity to Staphylococcus aureus DHFR expressed in Escherichia coli BL21 (DE3) assessed dissociation constant by ITC analysis
[30] = tested on: Staphylococcus aureus; assay: Synergistic antibacterial activity against Staphylococcus aureus ATCC 25923 assessed as fractional inhibitory concentration index incubated for 24 hrs in presence of SMX by CLSI based broth microdilution assay; type: functional
[31] = tested on: Staphylococcus aureus; assay: Synergistic antibacterial activity against Staphylococcus aureus USA 300 assessed as fractional inhibitory concentration index incubated for 24 hrs in presence of SMX by CLSI based broth microdilution assay; type: functional
[32] = tested on: Staphylococcus aureus; assay: Synergistic antibacterial activity against TMP-resistant Staphylococcus aureus BHKS 227 assessed as fractional inhibitory concentration index incubated for 24 hrs in presence of SMX by CLSI based broth microdilution assay; type: functional
[33] = tested on: Staphylococcus aureus; assay: Synergistic antibacterial activity against TMP-resistant Staphylococcus aureus BHKS 721 assessed as fractional inhibitory concentration index incubated for 24 hrs in presence of SMX by CLSI based broth microdilution assay; type: functional
[34] = tested on: Staphylococcus aureus; assay: Synergistic antibacterial activity against TMP-resistant Staphylococcus aureus BHKS 723 assessed as fractional inhibitory concentration index incubated for 24 hrs in presence of SMX by CLSI based broth microdilution assay; type: functional
[35] = tested on: Staphylococcus aureus; assay: Synergistic antibacterial activity against TMP-resistant Staphylococcus aureus BHKS 231 assessed as fractional inhibitory concentration index incubated for 24 hrs in presence of SMX by CLSI based broth microdilution assay; type: functional
[36] = tested on: Staphylococcus aureus; assay: Antibacterial activity against TMP-resistant Staphylococcus aureus BHKS 231 incubated for 24 hrs by CLSI based broth microdilution assay; type: functional
[37] = tested on: Dihydrofolate reductase (Staphylococcus aureus); settings: dose 100.0 nM
[38] = target: Dihydrofolate reductase (Staphylococcus aureus) (UniProt P0A017); settings: dose 10.0 µM, time 10.0 min
Chain of Dihydrofolate reductase (Staphylococcus aureus) (UniProt P0A017) (P0A017 2-159 limits assumed): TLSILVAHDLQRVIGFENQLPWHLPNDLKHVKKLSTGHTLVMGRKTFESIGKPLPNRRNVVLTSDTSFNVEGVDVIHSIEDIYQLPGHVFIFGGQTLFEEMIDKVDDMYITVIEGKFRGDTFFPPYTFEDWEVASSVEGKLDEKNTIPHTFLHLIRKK

T1 sequence (P0A017 whole entry): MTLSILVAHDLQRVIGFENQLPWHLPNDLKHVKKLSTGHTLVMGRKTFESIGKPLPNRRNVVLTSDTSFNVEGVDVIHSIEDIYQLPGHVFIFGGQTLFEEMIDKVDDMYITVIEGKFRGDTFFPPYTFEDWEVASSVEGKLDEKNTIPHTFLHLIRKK

`CC(C)c1cc(OCC2CC2)c(I)cc1Oc1cnc(N)nc1N` showed an MIC [1] of 0.031 µg/mL (≈ 0.0704 µM), an MIC [2] of 0.031 µg/mL (≈ 0.0704 µM) and an MIC [3] of 0.5 µg/mL (≈ 1.14 µM). The MIC [4] was 2 µg/mL (≈ 4.54 µM), the inhibition at 24 h, 100 µM [5] was 59.1% and the inhibition at 24 h, 100 µM [6] was 20.2%. The IC50 [7] was 0.00097 µM, the Activity [8] was “Non-Toxic” and the Activity [9] was “Toxic”. For the same compound, the Activity [10] was “Non-Toxic”, the Activity [11] was “Non-Toxic” and the Activity [12] was “Non-Toxic”. For the same compound, the t1/2 [13] was 146.1 min, the CLH [14] was 0.7 µL/min/mg and the t1/2 [15] was 26.2 min. The Cmax [16] was 4060 ng/mL, the Tmax [17] was 4.8 min and the clearance [18] was 25 mL/min/kg. It also gave an AUC(0-t) at 24 h [19] of 3240 ng·h/mL, a Cmax [20] of 579 ng/mL and a Tmax [21] of 79.8 min. The AUC(0-t) at 24 h [22] was 3920 ng·h/mL, the Activity [23] was “Active” and the Activity [24] was “Active”. The Activity [25] was “Active”, the Activity [26] was “Active” and the Activity [27] was “Active”. The Activity [28] was “Active”, the Kd [29] was 1.54 µM and the “fractional inhibitory concentration index (FICI)” value [30] was 0.066. The “fractional inhibitory concentration index (FICI)” value [31] was 0.022, the “fractional inhibitory concentration index (FICI)” value [32] was 0.27 and the “fractional inhibitory concentration index (FICI)” value [33] was 0.375. For the same compound, the “fractional inhibitory concentration index (FICI)” value [34] was 0.156, the “fractional inhibitory concentration index (FICI)” value [35] was 1 and the MIC [36] was 32 µg/mL (≈ 72.7 µM). The inhibition [37] was 47.4% and the ΔTm [38] was 18 °C.
